The source of these data is PMC6120666 (The EMBO Journal, 2018).

In experiment [1] the target is T1, recombinant RIPK1 (Homo sapiens, UniProt Q13546).
T1 construct: made in house
The experiment in a line: RIPK1 ADPGlo kinase assay. In kind it is biochemical. Conditions: concentrations up to 1 µM. On the procedure:
Cell viability was determined using CellTiter‐Glo assay (Promega). […] Kinase activities were determined using ADPGlo assay (Promega). • Structure of the active conformation of RIPK2 kinase domain in complex with AMP‐PNP (PDB ID: 5AR3). Figure depicts locations of the adenine and deep pockets. […] Key residues discussed in the text are shown as sticks (Lys/Glu Glu‐in bond—bottom left, catalytic Asp residues (Asp146/Asp164)—bottom right, R‐spine—right). P‐loop of CSLP18 structure is shown in yellow. Structured segment of activation segment (AS) observed in active conformation structures is shown in red. • Structure of RIPK2 kinase domain (gray ribbons) in complex with CSLP18 (orange) (PDB ID 6FU5). Sticks are shown for residues in the vicinity of the cavity surrounding the key inhibitor position R1. A 2Fo‐Fc electron density map contoured at 1 sigma is shown for the inhibitor and the residues lining the key region around inhibitor R^1 position. • Molecular docking model of RIPK2 kinase domain in complex with CSLP37 (yellow) based on RIPK2/CSLP18 structure (Fig 3D). […] Data information: Data in (A–C, G) represent the mean ± SEM of three independent experiments. **P < 0.01. Two‐way ANOVA was used to determine statistical significance. […]
For orientation: ADP-Glo turns the ADP formed in a reaction into a luminescent signal.

Experiment [2] deals with THP1Blue cells, NOD2. The experiment in a line: THP1Blue NF-κB-SEAP reporter assay, MDP (NOD2). Type of experiment: cell-based. Conditions: Homo sapiens; MDP 10 μg/ml; read-out: THP1-Blue NF-κB Inhibition IC50 (MDP). On the procedure:
For HEKBlue assay, cells were seeded into clear 96‐well plates at 7.5 × 10^3 cells/well and allowed to attach for 48 h. On the day of the experiment, media was changed to 100 μl of HEKBlue detection media (InvivoGen). Inhibitors were diluted and added in 0.5 μl DMSO 15 min prior to the addition of 1 ng/ml L18‐MDP (InvivoGen). After 8–9 h, absorbance at 620 nm was measured using Victor3V plate reader (Perkin Elmer, Waltham, MA). Values of media‐only wells were subtracted and %inhibition for each compound concentration relative to the DMSO/L18‐MDP‐treated controls was calculated. […] After induction, 20 μl of media was mixed with 180 μl of QUANTI‐Blue reagent (InvivoGen) and incubated at 37°C for 3–4 h, followed by absorbance measurement at 620 nm. IC50 values were calculated as described for HEKBlue assay. […]
For HEKBlue assay, cells were seeded into clear 96 well plates at 7.5x10^3 cells/well and allowed to attach for 48 h. […] After 8-9 h, absorbance at 620 nm was measured using Victor3V plate reader (Perkin Elmer, Waltham, MA). Values of media-only wells were subtracted and %inhibition for each compound concentration relative to the DMSO/L18-MDP-treated controls were calculated.
Inhibition values + StDev were fitted by non-linear regression using Prism software (GraphPad Software, La Jolla, CA) to calculate IC50 values. […] IC50 values were calculated as described for HEKBlue assay. […]
In general terms: A reporter such as luciferase makes a cellular process visible.

Structures are written as SMILES.

T1 sequence (Q13546 whole entry, species assumed): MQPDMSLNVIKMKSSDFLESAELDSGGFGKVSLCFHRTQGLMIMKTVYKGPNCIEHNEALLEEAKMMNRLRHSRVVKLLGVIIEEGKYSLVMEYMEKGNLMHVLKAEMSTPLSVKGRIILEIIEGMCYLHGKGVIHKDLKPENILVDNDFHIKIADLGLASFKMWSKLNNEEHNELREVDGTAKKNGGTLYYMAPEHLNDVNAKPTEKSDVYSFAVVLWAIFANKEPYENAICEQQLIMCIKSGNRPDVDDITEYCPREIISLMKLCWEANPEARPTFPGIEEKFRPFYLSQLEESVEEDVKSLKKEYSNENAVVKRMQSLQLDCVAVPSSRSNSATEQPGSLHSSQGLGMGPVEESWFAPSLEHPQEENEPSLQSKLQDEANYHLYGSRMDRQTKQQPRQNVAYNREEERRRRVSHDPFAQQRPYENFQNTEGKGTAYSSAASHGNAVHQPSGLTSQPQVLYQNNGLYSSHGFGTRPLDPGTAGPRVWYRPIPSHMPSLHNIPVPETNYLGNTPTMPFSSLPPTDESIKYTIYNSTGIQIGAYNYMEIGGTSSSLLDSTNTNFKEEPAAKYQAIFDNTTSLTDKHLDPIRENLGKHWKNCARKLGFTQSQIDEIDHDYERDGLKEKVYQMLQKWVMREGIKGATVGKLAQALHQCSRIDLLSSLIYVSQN

`CCCS(=O)(=O)Nc1cc(-c2cc(-c3ccc(N4CCNCC4)cc3)cnc2N)cc(F)c1OC` [CSLP37]: in experiment [1], the “inhibitory activity against RIPK1” value was “no inhibitory activity”. Besides, the IC50 (in general, the concentration that inhibits the measured activity by half) in experiment [2] was determined as 22.5 ± 2.1 nM.

With `CCCS(=O)(=O)Nc1cc(-c2cc(-c3ccc(N4CCNCC4)cc3)cnc2N)cc(OC)c1OC` [CSLP43], the “inhibitory activity against RIPK1” value in experiment [1] is “no inhibitory activity”. The IC50 in experiment [2] amounted to 1.34 ± 0.08 nM.
